Tests used:
[1] = tested on: rat; settings: Sub-acute repeat dose toxicity, sprague dawley, Oral, Gavage/Intubation, dose end: 28 day, group: systemic
[2] = tested on: rat; settings: Fertility (Segment I), sprague dawley, Oral, Gavage/Intubation, dose end: 7 GD
[3] = tested on: rat; settings: Prenatal developmental toxicity study, sprague dawley, Oral, Gavage/Intubation, dose end: 17 GD
[4] = tested on: rat; settings: Chronic toxicity, sprague dawley, Oral, Gavage/Intubation, dose end: 6 month, group: systemic
[5] = tested on: dog; settings: Sub-acute repeat dose toxicity, beagle, Oral, Gavage/Intubation, dose end: 4 week, group: systemic
[6] = tested on: rabbit; settings: Prenatal developmental toxicity study, new zealand white, Oral, Gavage/Intubation, dose end: 19 GD, group: maternal
[7] = tested on: rabbit; settings: Prenatal developmental toxicity study; new zealand white; Oral; Gavage/Intubation; dose end: 19 GD; group: maternal; reproductive / offspring survival early / litter viability other / total litter loss + systemic / in life observation / body weight / body …
[8] = tested on: rat; settings: Combined chronic toxicity/carcinogenicity, fischer, Oral, Feed, dose end: 105 week
[9] = tested on: dog; settings: Chronic toxicity; beagle; Oral; Feed; dose end: 104 week; group: cholinesterase; cholinesterase / cholinesterase / cholinesterase / erythrocyte cholinesterase (che) + cholinesterase / cholinesterase / cholinesterase / …
[10] = tested on: dog; settings: Chronic toxicity; beagle; Oral; Feed; dose end: 12 month; group: cholinesterase; cholinesterase / cholinesterase / cholinesterase / brain cholinesterase (che) + cholinesterase / cholinesterase / cholinesterase / …
[11] = tested on: dog; settings: Chronic toxicity; beagle; Oral; Feed; dose end: 107 week; group: systemic; systemic / pathology gross / eye / [other] + systemic / pathology gross / eye / discolored + systemic / pathology microscopic / eye / [other…
[12] = tested on: mouse; settings: Carcinogenicity, cd1, Oral, Feed, dose end: 108 week
[13] = tested on: rat; settings: Prenatal developmental toxicity study, sprague dawley, Oral, Gavage/Intubation, dose end: 15 GD
[14] = systemic / hematology / reticulocyte / reticulocyte + systemic / in life observation / clinical signs / hunched posture + systemic / in life…
[15] = systemic / in life observation / clinical signs / hunched posture + systemic / in life observation / clinical signs / piloerection
[16] = group: maternal, reproductive / reproductive performance / estrous cycle / abnormal
[17] = group: parental, systemic / in life observation / body weight / body weight gain + systemic / in life observation / clinical signs / hunched posture + …
[18] = group: developmental, systemic / in life observation / body weight / fetal weight
[19] = group: maternal, systemic / in life observation / body weight / body weight gain + systemic / in life observation / clinical signs / coma + systemic / in …
[20] = systemic / clinical chemistry / cholesterol / cholesterol + systemic / clinical chemistry / phosphorus / phosphate + systemic / clinical …
[21] = systemic / in life observation / clinical signs / hunched posture + systemic / pathology microscopic / liver / hypertrophy + systemic / in …
[22] = systemic / in life observation / clinical signs / dialated pupils + systemic / in life observation / clinical signs / defecation (diarrhea)
[23] = systemic / in life observation / clinical signs / dialated pupils + systemic / in life observation / clinical signs / defecation (diarrhea…
[24] = systemic / in life observation / body weight / body weight gain + systemic / in life observation / food consumption / food consumption + …
[25] = group: cholinesterase, cholinesterase / cholinesterase / cholinesterase / brain cholinesterase (che) + cholinesterase / cholinesterase / cholinesterase / …
[26] = group: systemic, systemic / pathology gross / harderian gland / degeneration + systemic / in life observation / body weight / body weight + systemic / in …
[27] = group: systemic, systemic / organ weight / kidney / relative to body weight + systemic / pathology microscopic / heart / lymphoma malignant
[28] = group: systemic, systemic / organ weight / kidney / relative to body weight + systemic / pathology microscopic / heart / lymphoma malignant + systemic / …
[29] = group: cholinesterase, cholinesterase / cholinesterase / cholinesterase / erythrocyte cholinesterase (che) + cholinesterase / cholinesterase / cholinesterase / …
[30] = group: developmental, developmental / developmental malformation / bone / incomplete ossification

## O=C(N[C@@H](c1ccccc1)[C@@H]1CCCCN1)c1cccc(C(F)(F)F)c1Cl
[1]; [14]
  LOAEL: 25 mg/kg/day
  NOAEL: 5 mg/kg/day
[1]; [15]
  LEL: 5 mg/kg/day
  NEL: < 5 mg/kg/day
[2]; [16]
  LEL: 50 mg/kg/day
  LOAEL: > 50 mg/kg/day
  NEL: 25 mg/kg/day
  NOAEL: ≥ 50 mg/kg/day
[2]; [17]
  LEL: 25 mg/kg/day
  LOAEL: 25 mg/kg/day
  NEL: 5 mg/kg/day
  NOAEL: 5 mg/kg/day
[3]; [18]
  LEL: 25 mg/kg/day
  LOAEL: 25 mg/kg/day
  NEL: 5 mg/kg/day
  NOAEL: 5 mg/kg/day
[3]; group: maternal, systemic / in life observation / body weight / body weight gain
  LOAEL: 25 mg/kg/day
[3]; [19]
  NEL: 5 mg/kg/day
  NOAEL: 5 mg/kg/day
[3]; group: maternal, systemic / in life observation / body weight / body weight gain + systemic / in life observation / food consumption / food consumption
  LEL: 25 mg/kg/day
[4]; [20]
  LOAEL: > 50 mg/kg/day
  NOAEL: ≥ 50 mg/kg/day
[4]; [21]
  LEL: 5 mg/kg/day
  NEL: < 5 mg/kg/day
[5]; [22]
  LEL: 1 mg/kg/day
  NEL: < 1 mg/kg/day
[5]; [23]
  LOAEL: > 10 mg/kg/day
  NOAEL: ≥ 10 mg/kg/day
[6]; systemic / in life observation / body weight / body weight gain + systemic / in life observation / food consumption / food consumption
  LEL: 15 mg/kg/day
[6]; [24]
  LOAEL: > 30 mg/kg/day
  NEL: 5 mg/kg/day
  NOAEL: ≥ 30 mg/kg/day
[7]
  LEL: 30 mg/kg/day
  LOAEL: 30 mg/kg/day
  NEL: 10 mg/kg/day
  NOAEL: 10 mg/kg/day

## CCOP(=S)(OCC)SCCSCC [Disulfoton]
[8]; [25]
  LEL: 0.04 mg/kg/day
  LOAEL: 0.04 mg/kg/day
  NEL: < 0.04 mg/kg/day
  NOAEL: < 0.04 mg/kg/day
[8]; group: systemic, systemic / pathology gross / harderian gland / degeneration
  LOAEL: 0.65 mg/kg/day
[8]; [26]
  LEL: 0.65 mg/kg/day
  NEL: 0.165 mg/kg/day
  NOAEL: 0.165 mg/kg/day
[9]
  LEL: 0.05 mg/kg/day
  LOAEL: 0.05 mg/kg/day
  NEL: 0.025 mg/kg/day
  NOAEL: 0.025 mg/kg/day
[10]
  LEL: 0.094 mg/kg/day
  LOAEL: 0.094 mg/kg/day
  NEL: 0.013 mg/kg/day
  NOAEL: 0.013 mg/kg/day
[11]
  LEL: 1.5 mg/kg/day
  LOAEL: 1.5 mg/kg/day
  NEL: 0.0375 mg/kg/day
  NOAEL: 0.0375 mg/kg/day
[12]; [25]
  LEL: 2.4 mg/kg/day
  LOAEL: 2.4 mg/kg/day
  NEL: 0.6 mg/kg/day
  NOAEL: 0.6 mg/kg/day
[12]; [27]
  LEL: 0.15 mg/kg/day
  NEL: < 0.15 mg/kg/day
[12]; [28]
  LOAEL: > 2.4 mg/kg/day
  NOAEL: ≥ 2.4 mg/kg/day
[13]; [29]
  LEL: 0.3 mg/kg/day
  LOAEL: 0.3 mg/kg/day
  NEL: 0.1 mg/kg/day
  NOAEL: 0.1 mg/kg/day
[13]; [30]
  LEL: 1 mg/kg/day
  LOAEL: 1 mg/kg/day
  NEL: 0.3 mg/kg/day
  NOAEL: 0.3 mg/kg/day
